Laboratory results: patent publication US20240239755A1, “SUBSTITUTED PYRIDAZINONES, SALTS OR N-OXIDES THEREOF AND THEIR USE AS HERBICIDALLY ACTIVE SUBSTANCES” (Bayer Aktiengesellschaft, priority 2021, published 2024)

Columns and labels:
Type in all cases: in vivo
[1] = system: Stellaria media (STEME); assay: Herbicidal post-emergence action, 1280 g/ha (Table B9); settings: visual assessment after ca. 3 weeks vs untreated controls
Source text: (§1) Seeds of mono- and dicotyledonous weed plants were sown in plastic pots (double sowings with one species of mono- and one species of dicotyledonous weed plants per pot), in sandy loam, covered with soil and grown under controlled growth conditions. 2 to 3 weeks after sowing, the test plants were sprayed in the single-leaf stage. The compounds according to the invention, formulated in the form of wettable powders (WP) or as emulsifiable concentrates (EC), were sprayed onto the green plant parts as an aqueous suspension or as an emulsion, with the addition of 0.5% of an additive, at an application rate of 600 litres of water per hectare (converted). The test plants were placed in the greenhouse for ca. 3 weeks under optimum growth conditions, and then the effect of the preparations was assessed visually in comparison with untreated controls (herbicidal effect in percent (%): 100% effect=plants have died, 0% effect=as control plants). Tables B1 to B11 below, show the effects of selected compounds of the general formula (I) according to Table 1 on various harmful plants using an application rate corresponding to 1280 g/ha obtained by the experimental procedure mentioned above.

[2] = system: Amaranthus retroflexus (AMARE); assay: Herbicidal post-emergence action, 1280 g/ha, AMARE; settings: visual grading vs untreated controls
Source text: as §1, with “plants).” for “plants). Tables B1 to B11 below, show the effects of selected compounds of the general formula (I) according to Table 1 on various harmful plants using an application rate corresponding to 1280 g/ha obtained by the experimental procedure mentioned above.”
(§2) Tables B1 to B11 below, show the effects of selected compounds of the general formula (I) according to Table 1 on various harmful plants using an application rate corresponding to 1280 g/ha obtained by the experimental procedure mentioned above.

[3] = system: Amaranthus retroflexus (AMARE); assay: Herbicidal pre-emergence action, 1280 g/ha (Table A11); settings: visual grading after ca. 3 weeks vs untreated controls
Source text: (§3) Seeds of mono- and dicotyledonous weed plants were sown in plastic pots (double sowings with one species of mono- and one species of dicotyledonous weed plants per pot), in sandy loam, and covered with soil. The compounds according to the invention, formulated in the form of wettable powders (WP) or as emulsifiable concentrates (EC), were applied to the surface of the covering soil as an aqueous suspension or as an emulsion, with the addition of 0.5% of an additive, at an application rate of 600 litres of water per hectare (converted). Following treatment, the pots were placed in a greenhouse and kept under optimum growth conditions for the test plants. The visual grading of the damage to the test plants was carried out after ca. 3 weeks in comparison to untreated controls (herbicidal effect in percent (%): 100% effect=plants have died, 0% effect=as control plants). Tables A1 to A11 below, show the effects of selected compounds of the general formula (I) according to Table 1 on various harmful plants and an application rate corresponding to 1280 g/ha obtained by the experimental procedure mentioned above.

[4] = system: Matricaria inodora (MATIN); assay: Herbicidal post-emergence action, 1280 g/ha (Table B6); settings: visual assessment after ca. 3 weeks vs untreated controls
Source text: as §1

[5] = system: Abutilon theophrasti (ABUTH); assay: Herbicidal post-emergence action, 1280 g/ha (Table B1); settings: visual assessment after ca. 3 weeks vs untreated controls
Source text: as §1

[6] = system: Matricaria inodora (MATIN); assay: Herbicidal pre-emergence action, 1280 g/ha (Table A6); settings: visual grading after ca. 3 weeks vs untreated controls
Source text: as §3

[7] = system: Lolium rigidum (LOLRI); assay: Herbicidal pre-emergence action, 1280 g/ha (Table A5); settings: visual grading after ca. 3 weeks vs untreated controls
Source text: as §3

[8] = system: Abutilon theophrasti (ABUTH); assay: Herbicidal post-emergence action, 320 g/ha, ABUTH; settings: visual grading after ca. 3 weeks
Source text: as §1, with “plants).” for “plants). Tables B1 to B11 below, show the effects of selected compounds of the general formula (I) according to Table 1 on various harmful plants using an application rate corresponding to 1280 g/ha obtained by the experimental procedure mentioned above.”
(§4) Tables D1 to D8 below, show the effects of selected compounds of the general formula (I) according to Table 1 on various harmful plants using an application rate corresponding to 320 g/ha obtained by the experimental procedure mentioned above.

[9] = system: Kochia scoparia (KCHSC); assay: Herbicidal post-emergence action, 1280 g/ha (Table B4); settings: visual assessment after ca. 3 weeks vs untreated controls
Source text: as §1

[10] = system: Stellaria media (STEME); assay: Herbicidal pre-emergence action, 1280 g/ha (Table A9); settings: visual grading after ca. 3 weeks vs untreated controls
Source text: as §3

[11] = system: Stellaria media (STEME); assay: Herbicidal pre-emergence action, 320 g/ha, STEME; settings: visual grading after ca. 3 weeks
Source text: as §3, with “plants).” for “plants). Tables A1 to A11 below, show the effects of selected compounds of the general formula (I) according to Table 1 on various harmful plants and an application rate corresponding to 1280 g/ha obtained by the experimental procedure mentioned above.”
Tables C1 to C6 below, show the effects of selected compounds of the general formula (I) according to Table 1 on various harmful plants using an application rate corresponding to 320 g/ha obtained by the experimental procedure mentioned above.

[12] = system: Veronica persica (VERPE); assay: Herbicidal post-emergence action, 1280 g/ha, VERPE; settings: visual grading vs untreated controls
Source text: as §1, with “plants).” for “plants). Tables B1 to B11 below, show the effects of selected compounds of the general formula (I) according to Table 1 on various harmful plants using an application rate corresponding to 1280 g/ha obtained by the experimental procedure mentioned above.”
as §2

[13] = system: Stellaria media (STEME); assay: Herbicidal post-emergence action, 320 g/ha, STEME; settings: visual grading after ca. 3 weeks
Source text: as §1, with “plants).” for “plants). Tables B1 to B11 below, show the effects of selected compounds of the general formula (I) according to Table 1 on various harmful plants using an application rate corresponding to 1280 g/ha obtained by the experimental procedure mentioned above.”
as §4

[14] = system: Amaranthus retroflexus (AMARE); assay: Herbicidal post-emergence action, 320 g/ha, AMARE; settings: visual grading after ca. 3 weeks
Source text: as §1, with “plants).” for “plants). Tables B1 to B11 below, show the effects of selected compounds of the general formula (I) according to Table 1 on various harmful plants using an application rate corresponding to 1280 g/ha obtained by the experimental procedure mentioned above.”
as §4

Row | SMILES | herbicidal effect STEME [1] | herbicidal effect AMARE [2] | herbicidal effect AMARE [3] | herbicidal effect MATIN [4] | herbicidal effect ABUTH [5] | herbicidal effect MATIN [6] | herbicidal effect LOLRI [7] | herbicidal effect ABUTH [8] | herbicidal effect KCHSC [9] | herbicidal effect STEME [10] | herbicidal effect STEME [11] | herbicidal effect VERPE [12] | herbicidal effect STEME [13] | herbicidal effect AMARE [14]
1 | Cc1ccc(C2CC2)c(Oc2c(O)c(C)nn(C)c2=O)c1 [Example I-039] | 90% | 90% | 90% | – | – | – | – | – | – | – | – | – | – | –
2 | CCOC(=O)Oc1c(C)nn(C)c(=O)c1Oc1cc(C)ccc1C1CC1 [Example I-040] | – | 90% | – | – | – | – | – | – | – | – | – | – | – | –
3 | CCOC(=O)Oc1c(C)nn(C)c(=O)c1Oc1cccc(C)c1C1CC1 [Example I-066] | 100% | – | 100% | 90% | 90% | 90% | – | – | – | – | – | – | – | –
4 | Cc1nn(C)c(=O)c(Oc2cccc(F)c2C2CC2)c1O [Example I-073] | 100% | 90% | – | 90% | 100% | 90% | 90% | 100% | 90% | 90% | 90% | – | – | –
5 | Cc1nn(C)c(=O)c(Oc2ccccc2OC(F)F)c1O [Example I-082] | 100% | 90% | – | 90% | 100% | 90% | 90% | 90% | – | 90% | – | 90% | 90% | –
6 | Cc1nn(C)c(=O)c(Oc2c(F)cccc2C2CC2)c1O [Example I-084] | 90% | 90% | – | – | 90% | – | 90% | – | 90% | – | – | 90% | – | 90%
7 | Cc1nn(C)c(=O)c(Oc2cc(F)ccc2Br)c1OC(=O)C(C)C [Example I-089] | – | 100% | – | 90% | 90% | 100% | 90% | – | – | 90% | – | – | – | –
8 | Cc1nn(C)c(=O)c(Oc2cc(F)cc(F)c2Br)c1O [Example I-090] | 90% | 90% | 90% | 90% | – | 90% | 90% | – | – | 100% | 90% | – | – | –
9 | Cc1nn(C)c(=O)c(Oc2cc(F)cc(F)c2Br)c1OC(=O)C(C)C [Example I-099] | 90% | 90% | – | 90% | 100% | 90% | – | – | 90% | 90% | 90% | 90% | 90% | –
10 | Cc1nn(C)c(=O)c(Oc2cc(Cl)cc(Cl)c2Cl)c1OC(=O)C(C)C [Example I-100] | 100% | 90% | – | – | 90% | – | 90% | – | – | 100% | 100% | – | 90% | –
